Experimental data from patent US4293650A, “Anti-coccidial substance and its preparation” (Rhone-Poulenc Industries, priority 1977, dated 1981).

Assays:
[1] = system: Staphylococcus aureus,strain 209 P- ATCC 6538 P; assay: Bacteriostatic activity in vitro (dilution method); type: cell-based; conditions: nutrient broth
[2] = system: Staphylococcus aureus,Smith strain; assay: Bacteriostatic activity in vitro (dilution method); type: cell-based; conditions: nutrient broth
[3] = system: Sarcina lutea - ATCC 9341; assay: Bacteriostatic activity in vitro (dilution method); type: cell-based; conditions: nutrient broth
[4] = system: Streptococcus faecalis - ATCC 8043; assay: Bacteriostatic activity in vitro (dilution method); type: cell-based; conditions: nutrient broth
[5] = system: Streptococcus pyogenes haemolyticus, Dig 7 strain (Institut Pasteur); assay: Bacteriostatic activity in vitro (dilution method); type: cell-based; conditions: nutrient broth
[6] = system: Diplococcus pneumoniae, Til strain (Institut Pasteur); assay: Bacteriostatic activity in vitro (dilution method); type: cell-based; conditions: nutrient broth
[7] = system: Neisseria catarrhalis (A 152, Institut Pasteur); assay: Bacteriostatic activity in vitro (dilution method); type: cell-based; conditions: nutrient broth
[8] = system: Bacillus subtilis - ATCC 6633; assay: Bacteriostatic activity in vitro (dilution method); type: cell-based; conditions: nutrient broth
[9] = system: Bacillus cereus - ATCC 6630; assay: Bacteriostatic activity in vitro (dilution method); type: cell-based; conditions: nutrient broth
[10] = system: Mycobacterium species - ATCC 607; assay: Bacteriostatic activity in vitro (dilution method); type: cell-based; conditions: nutrient broth
[11] = system: Shigella dysenteriae, Shiga L (Institut Pasteur); type: cell-based; conditions: nutrient broth
[12] = system: Salmonella schottmuelleri (paratyphi B), Fougenc strain (Institut Pasteur); assay: Bacteriostatic activity in vitro (dilution method); type: cell-based; conditions: nutrient broth
[13] = system: Proteus vulgaris; assay: Bacteriostatic activity in vitro (dilution method); type: cell-based; conditions: nutrient broth
[14] = system: Pseudomonas aeruginosa; assay: Bacteriostatic activity in vitro (dilution method); type: cell-based; conditions: nutrient broth
[15] = system: mice; assay: Acute toxicity in mice; type: in vivo; conditions: orally, single dose
Procedure: Acute toxicity: in mice, the 50% lethal dose (LD50) is 90 mg/kg given orally in a single dose.

[16] = system: chickens; assay: Toxicity of medicated feed in chickens (non-toxic concentrations); type: in vivo; conditions: between 0.005% and 0.04% by weight in feed
Procedure: Anti-coccidial activity: the anti-coccidial activity was determined in chickens infested in particular with Eimeria tenella and Eimeria acervulina.
The anti-coccidial activity of 37,454 RP (sodium salt), incorporated into chicken feed, manifests itself at non-toxic concentrations of between 0.005% and 0.04% by weight of the sodium salt in the feed.

**Q.** `CO[C@H]1CC[C@H](O[C@H]2[C@H](C)[C@@H]([C@H]3CC[C@H]([C@@H]4CC[C@H]([C@@]5(C)OC6(O[C@H](C[C@@H]7O[C@](O)([C@@H](O)C(=O)[O-])[C@@H](C)[C@H](OC)[C@@]7(C)OC)C[C@@H](OC)[C@H]6C)[C@H](C)[C@H]5OC)O4)O3)O[C@](C)(O)[C@@H]2C)O[C@@H]1C.[Na+]` (stereo partly shown) [37,454 RP (sodium salt)] was tested. Which Minimum bacteriostatic concentration [1] did it give?
**A.** 0.6 μg/cc

**Q.** And the Minimum bacteriostatic concentration [2]?
**A.** 0.8 μg/cc

**Q.** And the Minimum bacteriostatic concentration [3]?
**A.** 0.9 μg/cc

**Q.** And the Minimum bacteriostatic concentration [4]?
**A.** 0.3 μg/cc

**Q.** And the Minimum bacteriostatic concentration [5]?
**A.** 0.6 μg/cc

**Q.** And the Minimum bacteriostatic concentration [6]?
**A.** 0.1 μg/cc

**Q.** What about the Minimum bacteriostatic concentration [7] of the same compound?
**A.** > 20 μg/cc

**Q.** And the Minimum bacteriostatic concentration [8]?
**A.** 0.8 μg/cc

**Q.** What about the Minimum bacteriostatic concentration [9] of the same compound?
**A.** 0.3 μg/cc

**Q.** And the Minimum bacteriostatic concentration [10]?
**A.** 10 μg/cc

**Q.** And the Minimum bacteriostatic concentration [11]?
**A.** > 50 μg/cc

**Q.** And the Minimum bacteriostatic concentration [12]?
**A.** > 50 μg/cc

**Q.** And the Minimum bacteriostatic concentration [13]?
**A.** > 50 μg/cc

**Q.** What about the Minimum bacteriostatic concentration [14] of the same compound?
**A.** > 15 μg/cc

**Q.** And the “50% lethal dose (LD50)” value [15]?
**A.** 90 mg/kg

**Q.** What about the “Toxicity at active feed concentrations” value [16] of the same compound?
**A.** non-toxic
